Measured values as given in patent publication US20250041479A1, “PHOTO-ENZYMATIC PRINTING” (The Board of Trustees of the Leland Stanford Junior …, priority 2021, published 2025).

Experiments:
Format in all cases: physicochemical
[1] = Durability of the Razo cis-trans interconversion; conditions: blue then UV to photostationary states, repeated 15 times
Experimental: (§1) Razo as a stock solution of 70 mM in DMSO was diluted to 25 μM Razo in buffer (20 mM Tris-HCl, pH 7.4, 40 mM KCl). Absorbance spectra were acquired on a PerkinElmer UV-Vis spectrometer and sample illumination light was from a Lumencor Aura light engine, with a Blue light output centered on 475 nm with 28 nm bandpass filter and UV light output centered on 360 nm with a 28 nm bandpass filter. cis-Razo and trans-Razo Absorbance spectra shapes agreed with those from the paper where Razo was originally developed (Wang, et al. Angew. Chem., Int. Ed. 2010, 49, 5305). We aimed to characterize several features of the isomerization that are relevant to inform printing parameters for patterning of the substrate: light kinetics, dark kinetics, and durability.
Blue light was applied until the trans-dominated photostationary state was reached (blue curve in FIG. 5). Then UV light was applied until the cis-dominated photostationary state was reached (purple curve in FIG. 5).

[2] = Razo cis-trans conversion using light (UV-Vis absorbance spectra)
Experimental: as §1
After a long Blue (referred to as ‘visible’ in legend) light exposure to drive Razo to a trans dominated photostationary state, the amount of UV light necessary to drive Razo to the cis dominated photostationary state was determined to be roughly 10 seconds at 25% power (approximately 15 mW/cm^2).
After a long UV light exposure to drive Razo to a cis dominated photostationary state, the amount of Blue light necessary to drive Razo to the trans dominated photostationary state was determined to be roughly 10 seconds at 50% power (approximately 50 mW/cm^2).

[3] = Razo cis-trans thermal conversion in the dark; conditions: after long UV exposure, kept in the dark for 15 minutes
Experimental: as §1
After a long UV exposure to drive Razo to the cis dominated photostationary state, the sample was kept in the dark for 15 and 90 minutes.

C[N+]1(CCOc2ccc(/N=N/c3ccc(OCC[N+]4(C)CCCCC4)cc3)cc2)CCCCC1 [Razo]
isomerization efficiency over repeated blue/UV cycles [1]: isomerization efficiency is maintained over 15 cycles | amount of UV light necessary to drive Razo to the cis dominated photostationary state ([2]; 25 μM Razo in buffer (20 mM Tris-HCl, pH 7.4, 40 mM KCl), after long Blue exposure, UV 360 nm at 25% power (approximately 15 mW/cm^2)): roughly 10 seconds | amount of Blue light necessary to drive Razo to the trans dominated photostationary state ([2]; 25 μM Razo in buffer, after long UV exposure, Blue 475 nm at 50% power (approximately 50 mW/cm^2)): roughly 10 seconds | relaxation of cis to trans in the dark [3]: almost no relaxation of cis to trans
